Measurements reported in patent US10670605B2, “Cysteine reactive probes and uses thereof” (The Scripps Research Institute, priority 2015, dated 2020).

Legend:
GNB2L1 C182 (P63244) = GNB2L1 C182 (P63244) (Homo sapiens, UniProt P63244); test: Competitive isoTOP-ABPP, cell lysates; assay type: binding; details: 500 μm, in-vitro_ramos_231;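 also: Heavy/light ratio DMSO over fragment-treated so higher means more cysteine engagement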
Experimental: (§1) TEV digests were pressure loaded onto a 250 μm (inner diameter) fused silica capillary column packed with C18 resin (Aqua 5 μm, Phenomenex). The samples were analyzed by multidimensional liquid chromatography tandem mass spectrometry (MudPIT), using an LTQ-Velos Orbitrap mass spectrometer (Thermo Scientific) coupled to an Agilent 1200-series quaternary pump. The peptides were eluted onto a biphasic column with a 5 μm tip (100 μm fused silica, packed with C18 (10 cm) and bulk strong cation exchange resin (3 cm, SCX, Phenomenex,)) in a 5-step MudPIT experiment, using 0%, 30%, 60%, 90%, and 100% salt bumps of 500 mM aqueous ammonium acetate and using a gradient of 5-100% buffer B in buffer A (buffer A: 95% water, 5% acetonitrile, 0.1% formic acid; buffer B: 5% water, 95% acetonitrile, 0.1% formic acid) as has been described in Weerapana et al. Nat Protoc 2:1414-1425 (2007). Data was collected in data-dependent acquisition mode with dynamic exclusion enabled (20 s, repeat of 2). One full MS (MS1) scan (400-1800 m/z) was followed by 30 MS2 scans (ITMS) of the nth most abundant ions.
(§2) The ratios of heavy/light for each unique peptide (DMSO/compound treated; isoTOP-ABPP ratios, R values) were quantified with in-house CIMAGE software, using default parameters (3 ms s per peak and signal to noise threshold 2.5). Site-specific engagement of electrophilic fragments was assessed by blockade of IA-alkyne probe labeling. […] Ratios for unique peptide entries were calculated for each experiment; overlapping peptides with the same modified cysteine (e.g. different charge states, MudPIT chromatographic steps or tryptic termini) were grouped together and the median ratio was reported as the final ratio (R). The peptide ratios reported by CIMAGE were further filtered to ensure the removal or correction of low quality ratios in each individual dataset. The quality filters applied were the following: removal of half tryptic peptides; for ratios with high standard deviations from the median (90% of the median or above) the lowest ratio was taken instead of the median; removal of peptides with R=20 and only a single ms2 event triggered during the elution of the parent ion; manual annotation of all the peptides with ratios of 20, removing any peptides with low-quality elution profiles that remained after the previous curation steps. Proteome reactivity values for individual fragments were computed as the percentage of the total quantified cysteine-containing peptides with R values≥4 (defined as liganded cysteines) for each replicate experiment and the final proteome reactivity value was calculated as the mean for all replicate experiments for each fragment from both MDA-MB-231 and Ramos cellular proteomes.
(§3) Biological replicates of the same compound and cell-line were averaged if the standard deviation was below 60% of the mean; otherwise the lowest value of the ratio set was taken.

GSTP1 C48 (P09211) = GSTP1 C48 (P09211) (Homo sapiens, UniProt P09211); test: Competitive isoTOP-ABPP, cell lysates; assay type: binding; details: 500 μm, in-vitro_ramos_231;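 also: Heavy/light ratio DMSO over fragment-treated so higher means more cysteine engagement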
Experimental: as §1, §2, §3

MLTK C22 (Q9NYL2) = MLTK C22 (Q9NYL2) (Homo sapiens, UniProt Q9NYL2); test: Competitive isoTOP-ABPP, cell lysates; assay type: binding; details: 500 μm, in-vitro_ramos_231
Experimental: as §1, §2, §3

PDIA6 C55 (Q15084) = biological target: T1, PDIA6 C55 (Q15084) (Homo sapiens, UniProt Q15084); test: Competitive isoTOP-ABPP, cell lysates; assay type: binding; details: 500 μm, in-vitro_ramos_231
T1 sequence (Q15084 20-440): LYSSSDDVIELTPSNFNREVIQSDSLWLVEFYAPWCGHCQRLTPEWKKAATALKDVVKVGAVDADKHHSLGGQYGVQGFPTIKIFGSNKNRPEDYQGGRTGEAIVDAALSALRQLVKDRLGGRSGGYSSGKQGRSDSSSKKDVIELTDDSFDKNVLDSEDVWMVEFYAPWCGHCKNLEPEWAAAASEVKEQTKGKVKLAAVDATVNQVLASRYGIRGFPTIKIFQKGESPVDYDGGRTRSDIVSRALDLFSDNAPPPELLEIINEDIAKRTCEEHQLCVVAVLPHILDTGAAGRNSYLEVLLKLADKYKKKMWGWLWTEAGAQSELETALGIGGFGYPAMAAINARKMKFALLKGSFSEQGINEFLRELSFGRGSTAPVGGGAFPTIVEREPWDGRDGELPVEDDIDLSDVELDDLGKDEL
Experimental: as §1, §2, §3

PRMT1 C109 (Q99873) = PRMT1 C109 (Q99873) (Homo sapiens, UniProt Q99873); test: Competitive isoTOP-ABPP, cell lysates; assay type: binding; details: 500 μm, in-vitro_ramos_231;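 also: Heavy/light ratio DMSO over fragment-treated so higher means more cysteine engagement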
Experimental: as §1, §2, §3

UBE2L3 C86 (P68036) = UBE2L3 C86 (P68036) (Homo sapiens, UniProt P68036); test: Competitive isoTOP-ABPP, cell lysates; assay type: binding; details: 500 μm, in-vitro_ramos_231;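 also: Heavy/light ratio DMSO over fragment-treated so higher means more cysteine engagement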
Experimental: as §1, §2, §3

XPO1 C34 (O14980) = XPO1 C34 (O14980) (Homo sapiens, UniProt O14980); test: Competitive isoTOP-ABPP, cell lysates; assay type: binding; details: 500 μm, in-vitro_ramos_231
Experimental: as §1, §2, §3

ACAT1 C119 (P24752) = biological target: T2, ACAT1 C119 (P24752) (Homo sapiens, UniProt P24752); test: Competitive isoTOP-ABPP, cell lysates; assay type: binding; details: 500 μm, in-vitro_ramos_231
T2 sequence (P24752 34-427): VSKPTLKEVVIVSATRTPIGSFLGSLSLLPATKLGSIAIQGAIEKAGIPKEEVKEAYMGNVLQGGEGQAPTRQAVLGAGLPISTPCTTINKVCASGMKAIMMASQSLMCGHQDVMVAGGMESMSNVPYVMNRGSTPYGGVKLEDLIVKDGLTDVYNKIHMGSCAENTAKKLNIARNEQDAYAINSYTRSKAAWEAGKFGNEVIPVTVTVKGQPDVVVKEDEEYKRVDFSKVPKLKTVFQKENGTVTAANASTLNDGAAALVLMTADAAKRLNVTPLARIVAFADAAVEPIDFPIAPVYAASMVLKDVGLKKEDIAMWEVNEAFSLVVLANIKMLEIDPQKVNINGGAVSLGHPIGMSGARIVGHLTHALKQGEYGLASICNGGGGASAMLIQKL

ACAT1 C196 (P24752) = biological target: T3, ACAT1 C196 (P24752) (Homo sapiens, UniProt P24752); test: Competitive isoTOP-ABPP, cell lysates; assay type: binding; details: 500 μm, in-vitro_ramos_231
T3 sequence (P24752 34-427): T2 sequence (P24752 34-427)

ACAT1 C413 (P24752) = biological target: T4, ACAT1 C413 (P24752) (Homo sapiens, UniProt P24752); test: Competitive isoTOP-ABPP, cell lysates; assay type: binding; details: 500 μm, in-vitro_ramos_231
T4 sequence (P24752 34-427): T2 sequence (P24752 34-427)

ACAT1 C126 (P24752) = biological target: T5, ACAT1 C126 (P24752) (Homo sapiens, UniProt P24752); test: Competitive isoTOP-ABPP, cell lysates; assay type: binding; details: 500 μm, in-vitro_ramos_231
T5 sequence (P24752 34-427): T2 sequence (P24752 34-427)

O00541_C272 = O00541_C272 (Homo sapiens, UniProt O00541); test: Competitive isoTOP-ABPP, cell lysates; assay type: binding; details: 500 μm, in-vitro_ramos_231
MLTK (ZAK) C22 = biological target: T6, MLTK (ZAK) C22 (Homo sapiens, UniProt Q9NYL2); test: Blockade of ibrutinib-derived probe 59 labeling of MLTK (gel-based ABPP); assay type: binding; details: read-out: IC50 for blockade of ibrutinib probe 59 labeling of MLTK; recombinant MLTK in HEK293T lysate
T6 construct: expressed in transfected cells
Experimental: CuAAC was performed with 20 μM rhodamine-azide (50× stock in DMSO), 1 mM tris(2-carboxyethyl)phosphine hydrochloride (TCEP; fresh 50× stock in water, final concentration=1 mM), ligand (17× stock in DMSO:t-butanol 1:4, final concentration=100 μM) and 1 mM CuSO4 (50× stock in water, final concentration=1 mM). […] Quenched reactions were analyzed by SDS-PAGE and visualized by in-gel fluorescence. […] For MLTK, HEK 293T cells stably overexpressing MTLK^2 were treated with the indicated fragment electrophiles for 1 h, followed by labeling with 59 (1 μl, of 125 μM, final concentration=5 μM) for 1 h. These were followed by CuAAC conjugation to rhodamine-azide and evaluation by SDS-PAGE as described above.

MLTK [1] = biological target: T7, MLTK (Homo sapiens, UniProt Q9NYL2); test: MLTK in vitro kinase activity assay; assay type: biochemical; details: WT-MLTK, 100 μM fragment
T7 construct: expressed in transfected cells
Experimental: (§4) The kinase activity assay protocol was conducted as described in Wang et al. ACS Chemical biology 9:2194-2198 (2014). Kinase assay buffers, myelin basic protein (MBP) substrate and ATP stock solution were purchased from SignalChem. Radio-labeled [γ-^33P] ATP was purchased from PerkinElmer. 250 μL of HEK-293T soluble lysates (8 mg/mL), stably overexpressing WT, C22A or K45M MLTK were labeled for 1 h with 100 μM fragment or DMSO. The samples were then individually immunoprecipitated with 20 μL flag resin slurry per sample and then eluted with 15 μL 3×Flag-peptide. To each sample was added 5 μL of MBP and then 5 μL of [γ-^33P] ATP assay cocktail (250 μM, 167 μCi/mL) was added to initiate the kinase reaction. Each reaction mixture was incubated at ambient temperature for 30 min, and the reactions were terminated by spotting 25 μL of the reaction mixture onto individual precut phosphocellulose P81 paper. The spotted P81 strips were washed with 10 mL of 1% phosphoric acid (3×10 min). MLTK activity was measured by counting the radioactivity on the P81 paper in the presence of scintillation fluid in a scintillation counter. […] Relative activities for WT and C22A were normalized to their respective DMSO treated samples. Experiments were performed in triplicate.

MLTK [2] = biological target: T8, MLTK (Homo sapiens, UniProt Q9NYL2, C22A); test: MLTK in vitro kinase activity assay; assay type: biochemical; details: C22A-MLTK, 100 μM fragment
T8 construct: expressed in transfected cells
Experimental: as §4

With `CCCN(C(=O)CCl)c1c(N)n(CCC)c(=O)[nH]c1=O` [compound 55] the “isoTOP-ABPP reactivity profile ratio, P63244_C182” value (GNB2L1 C182 (P63244)) was 1.0, the “isoTOP-ABPP reactivity profile ratio, P09211_C48” value (GSTP1 C48 (P09211)) was 1.4 and the “isoTOP-ABPP reactivity profile ratio, Q9NYL2_C22” value (MLTK C22 (Q9NYL2)) was 1.2. For the same compound, the “isoTOP-ABPP reactivity profile ratio, Q15084_C55” value (PDIA6 C55 (Q15084)) was 0.9, the “isoTOP-ABPP reactivity profile ratio, Q99873_C109” value (PRMT1 C109 (Q99873)) was 1.0 and the “isoTOP-ABPP reactivity profile ratio, P68036_C86” value (UBE2L3 C86 (P68036)) was 1.0. The “isoTOP-ABPP reactivity profile ratio, O14980_C34” value (XPO1 C34 (O14980)) was 0.9, the “isoTOP-ABPP reactivity profile ratio, P24752_C119” value (ACAT1 C119 (P24752)) was 0.9 and the “isoTOP-ABPP reactivity profile ratio, P24752_C196” value (ACAT1 C196 (P24752)) was 1.0. For the same compound, the “isoTOP-ABPP reactivity profile ratio, P24752_C413” value (ACAT1 C413 (P24752)) was 1.0, the “isoTOP-ABPP reactivity profile ratio, P24752_C126” value (ACAT1 C126 (P24752)) was 0.9 and the “isoTOP-ABPP reactivity profile ratio, O00541_C272” value (O00541_C272) was 1.0.
For `O=C(CCl)N1N=C(c2ccco2)CC1c1cc2ccccc2o1` (stereo not drawn) [compound 60], the IC50 (MLTK (ZAK) C22) was 2600 nM, the “catalytic activity of MLTK (substrate phosphorylation)” value (MLTK [1]) was “blocked the catalytic activity” and the “inhibitory effect on C22A-MLTK mutant” value (MLTK [2]) was “not observed”.
